Results reported in the NIST ThermoML archive (doi:10.1016/j.jct.2012.03.031).

Assay: molar heat capacity at constant pressure
Conditions: 101.33 kPa

CCCCc1ccc(C(=O)Oc2ccc(C#N)c(F)c2)cc1 [4-cyano-3-fluorophenyl 4-butylbenzoate]
Conditions | molar heat capacity at constant pressure [J/K/mol]
141.25 K, Crystal 1, Small (less than 1 g) adiabatic calorimetry | 201.94
142.25 K, Crystal 1, Small (less than 1 g) adiabatic calorimetry | 202.81
142.97 K, Crystal 2, Small (less than 1 g) adiabatic calorimetry | 216.4
143.16 K, Crystal 1, Small (less than 1 g) adiabatic calorimetry | 203.97
144.71 K, Crystal 1, Small (less than 1 g) adiabatic calorimetry | 205.52
145.06 K, Crystal 1, Small (less than 1 g) adiabatic calorimetry | 206.05
145.3 K, Crystal 2, Small (less than 1 g) adiabatic calorimetry | 219.62
146.94 K, Crystal 1, Small (less than 1 g) adiabatic calorimetry | 208.17
147.18 K, Crystal 1, Small (less than 1 g) adiabatic calorimetry | 208.18
147.65 K, Crystal 2, Small (less than 1 g) adiabatic calorimetry | 221.78
148.81 K, Crystal 1, Small (less than 1 g) adiabatic calorimetry | 210.18
149.66 K, Crystal 1, Small (less than 1 g) adiabatic calorimetry | 210.87
150 K, Crystal 1, Vacuum adiabatic calorimetry | 211.22
150 K, Crystal 2, Small (less than 1 g) adiabatic calorimetry | 226.25
150 K, Crystal 2, Vacuum adiabatic calorimetry | 226.24
150.66 K, Crystal 1, Small (less than 1 g) adiabatic calorimetry | 212.24
152.15 K, Crystal 1, Small (less than 1 g) adiabatic calorimetry | 213.41
152.37 K, Crystal 2, Small (less than 1 g) adiabatic calorimetry | 229.33
152.5 K, Crystal 1, Small (less than 1 g) adiabatic calorimetry | 214.29
154.33 K, Crystal 1, Small (less than 1 g) adiabatic calorimetry | 216.32
154.65 K, Crystal 1, Small (less than 1 g) adiabatic calorimetry | 216.65
154.75 K, Crystal 2, Small (less than 1 g) adiabatic calorimetry | 232.46
156.14 K, Crystal 1, Small (less than 1 g) adiabatic calorimetry | 218.31
157.14 K, Crystal 2, Small (less than 1 g) adiabatic calorimetry | 235.73
157.17 K, Crystal 1, Small (less than 1 g) adiabatic calorimetry | 219.23
157.94 K, Crystal 1, Small (less than 1 g) adiabatic calorimetry | 220.33
159.54 K, Crystal 2, Small (less than 1 g) adiabatic calorimetry | 238.88
159.69 K, Crystal 1, Small (less than 1 g) adiabatic calorimetry | 222.08
159.74 K, Crystal 1, Small (less than 1 g) adiabatic calorimetry | 222.37
160 K, Crystal 1, Vacuum adiabatic calorimetry | 222.43
160 K, Crystal 2, Vacuum adiabatic calorimetry | 239.47
161.51 K, Crystal 1, Small (less than 1 g) adiabatic calorimetry | 224.35
161.96 K, Crystal 2, Small (less than 1 g) adiabatic calorimetry | 242.01
162.23 K, Crystal 1, Small (less than 1 g) adiabatic calorimetry | 224.93
163.28 K, Crystal 1, Small (less than 1 g) adiabatic calorimetry | 226.23
164.39 K, Crystal 2, Small (less than 1 g) adiabatic calorimetry | 245.1
164.77 K, Crystal 1, Small (less than 1 g) adiabatic calorimetry | 227.75
164.86 K, Crystal 1, Small (less than 1 g) adiabatic calorimetry | 227.97
166.27 K, Crystal 1, Small (less than 1 g) adiabatic calorimetry | 229.58
166.83 K, Crystal 2, Small (less than 1 g) adiabatic calorimetry | 248.12
167.33 K, Crystal 1, Small (less than 1 g) adiabatic calorimetry | 230.64
167.66 K, Crystal 1, Small (less than 1 g) adiabatic calorimetry | 231.21
169.05 K, Crystal 1, Small (less than 1 g) adiabatic calorimetry | 232.8
169.28 K, Crystal 2, Small (less than 1 g) adiabatic calorimetry | 251.2
169.91 K, Crystal 1, Small (less than 1 g) adiabatic calorimetry | 233.56
170 K, Crystal 1, Vacuum adiabatic calorimetry | 233.66
170 K, Crystal 2, Vacuum adiabatic calorimetry | 252.09
170.44 K, Crystal 1, Small (less than 1 g) adiabatic calorimetry | 234.45
171.75 K, Crystal 2, Small (less than 1 g) adiabatic calorimetry | 254.25
171.81 K, Crystal 1, Small (less than 1 g) adiabatic calorimetry | 235.91
172.49 K, Crystal 1, Small (less than 1 g) adiabatic calorimetry | 236.43
173.18 K, Crystal 1, Small (less than 1 g) adiabatic calorimetry | 237.49
174.23 K, Crystal 2, Small (less than 1 g) adiabatic calorimetry | 257.27
174.55 K, Crystal 1, Small (less than 1 g) adiabatic calorimetry | 239.04
175.09 K, Crystal 1, Small (less than 1 g) adiabatic calorimetry | 239.43
175.91 K, Crystal 1, Small (less than 1 g) adiabatic calorimetry | 240.69
176.72 K, Crystal 2, Small (less than 1 g) adiabatic calorimetry | 260.38
177.26 K, Crystal 1, Small (less than 1 g) adiabatic calorimetry | 242.06
177.69 K, Crystal 1, Small (less than 1 g) adiabatic calorimetry | 242.43
178.61 K, Crystal 1, Small (less than 1 g) adiabatic calorimetry | 243.74
179.23 K, Crystal 2, Small (less than 1 g) adiabatic calorimetry | 263.65
179.95 K, Crystal 1, Small (less than 1 g) adiabatic calorimetry | 245.46
180 K, Crystal 1, Vacuum adiabatic calorimetry | 245.15
180 K, Crystal 2, Vacuum adiabatic calorimetry | 264.63
180.31 K, Crystal 1, Small (less than 1 g) adiabatic calorimetry | 245.52
181.28 K, Crystal 1, Small (less than 1 g) adiabatic calorimetry | 246.9
181.74 K, Crystal 2, Small (less than 1 g) adiabatic calorimetry | 266.86
182.62 K, Crystal 1, Small (less than 1 g) adiabatic calorimetry | 248.29
182.95 K, Crystal 1, Small (less than 1 g) adiabatic calorimetry | 248.51
183.94 K, Crystal 1, Small (less than 1 g) adiabatic calorimetry | 249.95
184.27 K, Crystal 2, Small (less than 1 g) adiabatic calorimetry | 270.08
185.26 K, Crystal 1, Small (less than 1 g) adiabatic calorimetry | 251.54
185.59 K, Crystal 1, Small (less than 1 g) adiabatic calorimetry | 251.57
186.58 K, Crystal 1, Small (less than 1 g) adiabatic calorimetry | 253
186.82 K, Crystal 2, Small (less than 1 g) adiabatic calorimetry | 273.41
187.89 K, Crystal 1, Small (less than 1 g) adiabatic calorimetry | 254.44
188.25 K, Crystal 1, Small (less than 1 g) adiabatic calorimetry | 254.7
189.2 K, Crystal 1, Small (less than 1 g) adiabatic calorimetry | 256.01
189.37 K, Crystal 2, Small (less than 1 g) adiabatic calorimetry | 276.6
190 K, Crystal 1, Vacuum adiabatic calorimetry | 256.78
190 K, Crystal 2, Vacuum adiabatic calorimetry | 277.35
190.5 K, Crystal 1, Small (less than 1 g) adiabatic calorimetry | 257.62
190.92 K, Crystal 1, Small (less than 1 g) adiabatic calorimetry | 257.87
191.8 K, Crystal 1, Small (less than 1 g) adiabatic calorimetry | 259.15
191.94 K, Crystal 2, Small (less than 1 g) adiabatic calorimetry | 279.67
193.09 K, Crystal 1, Small (less than 1 g) adiabatic calorimetry | 260.81
193.6 K, Crystal 1, Small (less than 1 g) adiabatic calorimetry | 261.01
194.38 K, Crystal 1, Small (less than 1 g) adiabatic calorimetry | 262.19
194.52 K, Crystal 2, Small (less than 1 g) adiabatic calorimetry | 282.72
195.67 K, Crystal 1, Small (less than 1 g) adiabatic calorimetry | 263.76
196.29 K, Crystal 1, Small (less than 1 g) adiabatic calorimetry | 264.21
196.94 K, Crystal 1, Small (less than 1 g) adiabatic calorimetry | 265.24
197.12 K, Crystal 2, Small (less than 1 g) adiabatic calorimetry | 285.61
198.22 K, Crystal 1, Small (less than 1 g) adiabatic calorimetry | 266.88
199 K, Crystal 1, Small (less than 1 g) adiabatic calorimetry | 267.79
199.49 K, Crystal 1, Small (less than 1 g) adiabatic calorimetry | 268.59
199.73 K, Crystal 2, Small (less than 1 g) adiabatic calorimetry | 288.75
200 K, Crystal 1, Vacuum adiabatic calorimetry | 269.03
200 K, Crystal 2, Vacuum adiabatic calorimetry | 289.06
200.76 K, Crystal 1, Small (less than 1 g) adiabatic calorimetry | 270.11
201.72 K, Crystal 1, Small (less than 1 g) adiabatic calorimetry | 271.16
202.02 K, Crystal 1, Small (less than 1 g) adiabatic calorimetry | 271.81
202.35 K, Crystal 2, Small (less than 1 g) adiabatic calorimetry | 291.75
203.27 K, Crystal 1, Small (less than 1 g) adiabatic calorimetry | 273.36
204.44 K, Crystal 1, Small (less than 1 g) adiabatic calorimetry | 274.73
204.53 K, Crystal 1, Small (less than 1 g) adiabatic calorimetry | 275.01
204.98 K, Crystal 2, Small (less than 1 g) adiabatic calorimetry | 294.58
205.77 K, Crystal 1, Small (less than 1 g) adiabatic calorimetry | 276.69
207.02 K, Crystal 1, Small (less than 1 g) adiabatic calorimetry | 278.34
207.18 K, Crystal 1, Small (less than 1 g) adiabatic calorimetry | 278.39
207.63 K, Crystal 2, Small (less than 1 g) adiabatic calorimetry | 297.45
208.26 K, Crystal 1, Small (less than 1 g) adiabatic calorimetry | 279.95
209.49 K, Crystal 1, Small (less than 1 g) adiabatic calorimetry | 281.68
209.93 K, Crystal 1, Small (less than 1 g) adiabatic calorimetry | 282.11
210 K, Crystal 1, Vacuum adiabatic calorimetry | 282.2
210 K, Crystal 2, Vacuum adiabatic calorimetry | 300.06
210.29 K, Crystal 2, Small (less than 1 g) adiabatic calorimetry | 300.38
210.72 K, Crystal 1, Small (less than 1 g) adiabatic calorimetry | 283.2
211.95 K, Crystal 1, Small (less than 1 g) adiabatic calorimetry | 284.9
212.69 K, Crystal 1, Small (less than 1 g) adiabatic calorimetry | 285.7
212.97 K, Crystal 2, Small (less than 1 g) adiabatic calorimetry | 303.2
213.18 K, Crystal 1, Small (less than 1 g) adiabatic calorimetry | 286.42
214.4 K, Crystal 1, Small (less than 1 g) adiabatic calorimetry | 288
215.46 K, Crystal 1, Small (less than 1 g) adiabatic calorimetry | 289.41
215.62 K, Crystal 1, Small (less than 1 g) adiabatic calorimetry | 289.65
215.65 K, Crystal 2, Small (less than 1 g) adiabatic calorimetry | 306.03
216.83 K, Crystal 1, Small (less than 1 g) adiabatic calorimetry | 291.26
218.04 K, Crystal 1, Small (less than 1 g) adiabatic calorimetry | 292.84
218.24 K, Crystal 1, Small (less than 1 g) adiabatic calorimetry | 293.08
218.35 K, Crystal 2, Small (less than 1 g) adiabatic calorimetry | 308.99
219.24 K, Crystal 1, Small (less than 1 g) adiabatic calorimetry | 294.47
220 K, Crystal 1, Vacuum adiabatic calorimetry | 295.42
220 K, Crystal 2, Vacuum adiabatic calorimetry | 310.55
220.45 K, Crystal 1, Small (less than 1 g) adiabatic calorimetry | 296.21
221.03 K, Crystal 1, Small (less than 1 g) adiabatic calorimetry | 296.79
